Reference: patent US9770452B2, “Quinoxaline derivatives as GPR6 modulators” (Takeda Pharmaceutical Company Limited, priority 2012, dated 2017)
Where a name gives a salt, the structure may show the parent alone.

Target: T1, GPR6 receptor (Homo sapiens, UniProt P46095)
T1 construct: expressed in transfected cells
Assay: Inhibition of cAMP Activity of GPR6 In Vitro Assay (CHO-K1 cells, HTRF cAMP)
Format: cell-based
Conditions: compounds of Compound Table 1; inhibition of constitutive cAMP activity of GPR6 expressed in CHO-K1 cells; approximate IC50; read-out: IC50
How it was run: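 CHO-K1 cells with doxycycline-induced (1 μg/ml, 20 h) GPR6 treated with compounds 45 min at 37 °C in Ringer's buffer (pH 7.4) with 0.5% fatty acid free BSA. Constitutive cAMP measured by Lance HTRF Ultra cAMP; IC50 from four-parameter logistic fit.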

T1 sequence (P46095 whole entry): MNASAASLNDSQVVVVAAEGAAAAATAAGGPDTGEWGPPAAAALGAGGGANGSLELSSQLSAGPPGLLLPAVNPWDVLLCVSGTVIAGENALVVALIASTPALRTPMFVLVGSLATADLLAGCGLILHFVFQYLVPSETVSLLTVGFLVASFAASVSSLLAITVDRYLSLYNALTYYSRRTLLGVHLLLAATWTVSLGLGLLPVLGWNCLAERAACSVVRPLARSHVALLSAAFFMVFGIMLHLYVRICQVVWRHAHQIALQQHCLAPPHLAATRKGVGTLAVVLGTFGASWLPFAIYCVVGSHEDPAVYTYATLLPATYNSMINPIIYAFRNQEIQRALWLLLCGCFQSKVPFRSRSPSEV

Molecule | IC50 [nM]
(4-(2-(cyclopropylamino)pyrido[3,4-b]pyrazin-3-yl)piperazin-1-yl)(4-(difluoromethyl)phenyl)methanone, 2,2,2-trifluoroacetic acid salt [Cpd 289] | 270
(S)—N-(sec-butyl)-3-(4-(2-fluoro-4-methoxyphenoxy)piperidin-1-yl)pyrazino[2,3-d]pyridazin-2-amine, 2,2,2-trifluoroacetic acid salt [Cpd 637] | 26
N-cyclohexyl-3-(4-(2,5-dichlorobenzyl)piperazin-1-yl)quinoxalin-2-amine, 2,2,2-trifluoroacetic acid salt [Cpd 170] | 4070
(2-chloro-4-fluorophenyl)(4-(2-(cyclopropylamino)pyrido[3,4-b]pyrazin-3-yl)piperazin-1-yl)methanone, 2,2,2-trifluoroacetic acid salt [Cpd 363] | 230
3-(4-(4-chloro-2-fluorophenoxy)piperidin-1-yl)-2-(isopropylamino)-N,N-dimethylpyrido[3,4-b]pyrazine-7-carboxamide, 2,2,2-trifluoroacetic acid salt [Cpd 630] | 7
3-(4-(2,5-dichlorobenzyl)piperazin-1-yl)-2-(isoxazol-3-ylamino)quinoxaline-6-carbonitrile, 2,2,2-trifluoroacetic acid salt [Cpd 340] | 15400
c1ccc(CN2CCN(c3nc4ccccc4nc3NC3CC3)CC2)nc1 [Cpd 20, N-cyclopropyl-3-(4-(pyridin-2-ylmethyl)piperazin-1-yl)quinoxalin-2-amine, 22,2,2-trifluoroacetic acid salt] | 69200
3-(4-((2,4-difluorophenyl)fluoromethyl)piperidin-1-yl)-N-(2-methoxyethyl)pyrido[3,4-b]pyrazin-2-amine, 2,2,2-trifluoroacetic acid salt [Cpd 520] | 30
N-ethyl-3-(4-(2-fluoro-4-methoxyphenoxy)piperidin-1-yl)pyrido[3,4-b]pyrazin-2-amine, 2,2,2-trifluoroacetic acid salt [Cpd 622] | 29
2-(cyclopropylamino)-3-(4-(2-fluoro-4-methoxybenzyl)piperazin-1-yl)-N,N-dimethylpyrido[3,4-b]pyrazine-7-carboxamide, 2,2,2-trifluoroacetic acid salt [Cpd 614] | 66
Fc1ccc(F)c(CN2CCN(c3nc4ccccc4nc3NC3CC3)CC2)c1 [Cpd 81, N-cyclopropyl-3-(4-(2,5-difluorobenzyl)piperazin-1-yl)quinoxalin-2-amine, 2,2,2-trifluoroacetic acid salt] | 4580
5-chloro-1-((1-(2-(cyclopropylamino)pyrido[3,4-b]pyrazin-3-yl)piperidin-4-yl)methyl)pyridin-2(1H)-one [Cpd 532] | 380
N-cyclopropyl-2-(4-(2,5-difluorobenzyl)piperazin-1-yl)pyrido[3,4-b]pyrazin-3-amine, 2,2,2-trifluoroacetic acid salt [Cpd 292] | 56
N#Cc1ccc(C(=O)N2CCN(c3nc4ccccc4nc3NC3CC3)CC2)cc1 [Cpd 75, 4-(4-(3-(cyclopropylamino)quinoxalin-2-yl)piperazine-1-carbonyl)benzonitrile, 2,2,2-trifluoroacetic acid salt] | 21800
Clc1cc(CN2CCN(c3nc4ccccc4nc3NC3CC3)CC2)c(Cl)s1 [Cpd 99, N-cyclopropyl-3-(4-((2,5-dichlorothiophen-3-yl)methyl)piperazin-1-yl)quinoxalin-2-amine, 2,2,2-trifluoroacetic acid salt] | 6030
3-(4-(2,5-dichlorobenzyl)piperazin-1-yl)-N-(2-ethoxyethyl)quinoxalin-2-amine, 2,2,2-trifluoroacetic acid salt [Cpd 167] | 3330
N#Cc1ccc(Nc2nc3ccccc3nc2N2CCN(Cc3cc(Cl)ccc3Cl)CC2)cc1 [Cpd 58, 4-((3-(4-(2,5-dichlorobenzyl)piperazin-1-yl)quinoxalin-2-yl)amino)benzonitrile] | 5530
2-((1-(2-(cyclopropylamino)pyrido[3,4-b]pyrazin-3-yl)piperidin-4-yl)oxy)benzonitrile [Cpd 574] | 4810
(2-chloro-5-fluorophenyl)(1-(2-(cyclopropylamino)pyrido[3,4-b]pyrazin-3-yl)piperidin-4-yl)methanone, 2,2,2-trifluoroacetic acid salt [Cpd 567] | 5780
3-(4-((2,4-difluorophenyl)fluoromethyl)piperidin-1-yl)-N-isopropylpyrido[3,4-b]pyrazin-2-amine, 2,2,2-trifluoroacetic acid salt [Cpd 621] | 21
N-cyclopropyl-3-(4-(2,4-difluorobenzyl)piperidin-1-yl)-5-methylpyrido[3,4-b]pyrazin-2-amine, 2,2,2-trifluoroacetic acid salt [Cpd 493] | 9
3-(4-((2-cyanophenyl)sulfonyl)piperazin-1-yl)-2-(cyclopropylamino)quinoxaline-6-carbonitrile, 2,2,2-trifluoroacetic acid salt [Cpd 252] | 2540

Molecule | IC50 [nM]
CC(C)Nc1nc2ccccc2nc1N1CCN(Cc2cc(Cl)ccc2Cl)CC1 [Cpd 111, 3-(4-(2,5-dichlorobenzyl)piperazin-1-yl)-N-isopropylquinoxalin-2-amine, 2,2,2-trifluoroacetic acid salt] | 3310
N-cyclopropyl-2-(4-(2,4-difluorobenzyl)piperidin-1-yl)pyrido[3,4-b]pyrazin-3-amine, 2,2,2-trifluoroacetic acid salt [Cpd 427] | 78
2-(cyclopropylamino)-3-(4-tosylpiperazin-1-yl)quinoxaline-6-carbonitrile [Cpd 240] | 4590
(2-fluoro-4-methoxyphenyl)(1-(3-(isopropylamino)pyrazino[2,3-d]pyridazin-2-yl)piperidin-4-yl)methanone, 2,2,2-trifluoroacetic acid salt [Cpd 641] | 14
3-(4-((4-chlorophenyl)sulfonyl)piperazin-1-yl)-2-(cyclopropylamino)quinoxaline-6-carbonitrile, 2,2,2-trifluoroacetic acid salt [Cpd 227] | 3290
C[C@@H]1C[C@H]1Nc1nc2cnncc2nc1N1CCC([C@@H](F)c2ccc(F)cc2F)CC1 [Cpd 645, 3-(4-((R)-(2,4-difluorophenyl)fluoromethyl)piperidin-1-yl)-N-((1R,2R)-2-methylcyclopropyl)pyrazino[2,3-d]pyridazin-2-amine, 2,2,2-trifluoroacetic acid salt] | 145
N-cyclopropyl-3-(4-(2,3,5-trichlorobenzyl)piperazin-1-yl)quinoxalin-2-amine, 2,2,2-trifluoroacetic acid salt [Cpd 221] | 20400
3-(4-(5-chloro-2-fluorobenzoyl)piperidin-1-yl)-2-(cyclopropylamino)quinoxaline-6-carbonitrile, 2,2,2-trifluoroacetic acid salt [Cpd 469] | 90
N-cyclopropyl-3-(4-(2-methoxyphenoxy)piperidin-1-yl)pyrido[3,4-b]pyrazin-2-amine, 2,2,2-trifluoroacetic acid salt [Cpd 559] | 67
3-(4-(2-fluoro-4-methoxyphenoxy)piperidin-1-yl)-N-isopropylpyrido[3,4-b]pyrazin-2-amine, 2,2,2-trifluoroacetic acid salt [Cpd 617] | 54
(R)—N-cyclopropyl-3-(4-((2,4-difluorophenyl)fluoromethyl)piperidin-1-yl)pyrazino[2,3-d]pyridazin-2-amine, 2,2,2-trifluoroacetic acid salt [Cpd 599] | 5
2-(cyclopropylamino)-3-(4-(phenylsulfonyl)piperazin-1-yl)quinoxaline-6-carbonitrile [Cpd 162] | 4630
3-(4-(2,4-difluorobenzyl)piperidin-1-yl)-N-(2-methoxyethyl)pyrido[3,4-b]pyrazin-2-amine, 2,2,2-trifluoroacetic acid salt [Cpd 519] | 250
N-cyclopropyl-3-(4-(pyridin-4-yloxy)piperidin-1-yl)pyrido[3,4-b]pyridin-2-amine [Cpd 554] | 190
3-(4-(2,5-dichlorobenzyl)piperazin-1-yl)-N-(tetrahydro-2H-pyran-4-yl)quinoxalin-2-amine, 2,2,2-trifluoroacetic acid salt [Cpd 171] | 1570
2-(cyclopropylamino)-3-(4-(2,4-difluorobenzyl)piperidin-1-yl)quinoxaline-6-carbonitrile, 2,2,2-trifluoroacetic acid salt [Cpd 416] | 1510
3-(4-(2,5-difluorobenzoyl)piperidin-1-yl)-2-(isopropylamino)pyrido[3,4-b]pyrazine-7-carbonitrile, 2,2,2-trifluoroacetic acid salt [Cpd 631] | 6
N-cyclopropyl-3-(4-((2,4-difluorophenyl)fluoromethyl)piperidin-1-yl)-7-methylpyrido[3,4-b]pyrazin-2-amine, 2,2,2-trifluoroacetic acid salt [Cpd 488] | 29
(4-chloro-3-methylphenyl)(4-(3-(pyridin-3-ylamino)quinoxalin-2-yl)piperazin-1-yl)methanone, 2,2,2-trifluoroacetic acid salt [Cpd 230] | 800
Fc1ccc(Nc2nc3ccccc3nc2N2CCN(Cc3cccc(Cl)c3)CC2)cc1 [Cpd 38, 3-(4-(3-chlorobenzyl)piperazin-1-yl)-N-(4-fluorophenyl)quinoxalin-2-amine, 2,2,2-trifluoroacetic acid salt] | 5730
3-(4-(2,5-dichlorobenzyl)piperazin-1-yl)-N-(1,2,4-triazin-3-yl)quinoxalin-2-amine, 2,2,2-trifluoroacetic acid salt [Cpd 177] | 17800
